Test results as given in US10442788B2, “Hepatitis B antiviral agents” (ENANTA PHARMACEUTICALS, INC., priority 2015, dated 2019).
Like-named read-outs stand apart in the source and are kept apart here.

System: HBV
Assay: HepAD38 antiviral assay: reduction of viral product accumulation (virion DNA by qPCR, HBsAg or HBeAg by ELISA)
Assay type: cell-based
Details: Hepatitis B virus
Description: Methods: HepAD38 cells are maintained as previously reported (Ladner et al, Antimicrob. Agents Chemother. 1997, […], 1715). Briefly, cells are passaged upon attaining confluency in DMEM/F12 media in the presence of 10% FBS, Penn/Strep, 250 μg/mL G418, and 1 ug/ml tetracycline. Novel compounds are screened by first washing cells three times with PBS to remove tetracycline, and plating in 96 well plates at 35,000 cells/well. Compounds dissolved in DMSO are then diluted 1:200 into wells containing cells. Five days after compound addition, material is harvested for analysis. For an extended 8 day analysis, cells are plated and treated as described above, but media and compound are refreshed on d2 and d5 post initial treatment.
On harvest day, virion DNA is obtained by lysing with Sidestep Lysis and Stabilization Buffer and then quantified via quantitative real time PCR. Commercially available ELISA kits are used to quantitate the viral proteins HBsAg (Alpco) or HbeAg (US Biological) by following the manufacturer's recommended protocol after diluting samples to match the linear range of their respective assays. Irrespective of readout, compound concentrations that reduce viral product accumulation in the cell lysates or supernatants by 50% relative to no drug controls (EC50) are reported; EC50 ranges are as follows: A<1 μM; B 1-10 μM; C>10 μM.

[1] = 120 h, HepAD38 cells, five days after compound addition, 50% reduction of viral product accumulation relative to no drug controls, read-out: HepAD38 EC50

Compound	EC50 [1] [µM]	EC50 (HePAD38, 120 h, read-out: HepAD38 EC50 (μM)) [µM]
O=S(=O)(c1cc(-c2nc(-c3ccc(Cl)c(C4CC4)c3)c[nH]2)ccc1Cl)N1CCC(O)CC1 [Example 17]	< 1	–
O=S(=O)(c1cc(-c2nc(-c3ccc(Br)c(F)c3)c[nH]2)ccc1Cl)N1CC[C@@H](O)[C@@H](O)CC1 [Example 19]	< 1	–
O=S(=O)(c1cc(-c2nc(-c3ccc(Br)c(F)c3)c[nH]2)ccc1Cl)N1CC[C@@H](O)[C@H](O)CC1 [Example 20]	< 1	–
O=S(=O)(c1cc(-c2nc(-c3ccc(Br)c(F)c3)c[nH]2)ccc1Cl)N1C[C@@H](O)C[C@H]2C[C@H]2C1 [Example 34]	< 1	–
O=S(=O)(c1cc(-c2nc(-c3cccs3)c[nH]2)ccc1Cl)N1CCC(O)CC1 [Example 70]	1 to 10	–
O=S(=O)(c1cc(-c2nc(-c3ccccc3Br)c[nH]2)ccc1Cl)N1CCC(O)CC1 [Example 74]	> 10	–
O=S(=O)(c1cc(-c2nc(-c3ccccc3Cl)c[nH]2)ccc1Cl)N1CCC(O)CC1 [Example 75]	> 10	–
O=S(=O)(c1cc(-c2nc(-c3ccc4ocnc4c3)c[nH]2)ccc1Cl)N1CCC(O)CC1 [Example 76]	> 10	–
COCCN(C)S(=O)(=O)c1cc(-c2ncc(-c3ccc(F)c(Br)c3)[nH]2)ccc1Cl [Example 77]	> 10	–
O=S(=O)(c1cc(-c2nc(-c3cc(F)c(F)c(Cl)c3)c[nH]2)ccc1Cl)N1CCC(O)CC1 [Example 78]	> 10	–
O=S(=O)(c1cc(-c2nc(-c3cscn3)c[nH]2)ccc1Cl)N1CCC(O)CC1 [Example 80]	> 10	–
O=S(=O)(c1cc(-c2nc(-c3nccs3)c[nH]2)ccc1Cl)N1CCC(O)CC1 [Example 81]	> 10	–
O=S(=O)(c1cc(-c2nc(-c3ccc(F)cc3F)c[nH]2)ccc1Cl)N1CCC(O)CC1 [Example 84]	1 to 10	–
O=S(=O)(c1cc(-c2nc(-c3cccc(F)c3F)c[nH]2)ccc1Cl)N1CCC(O)CC1 [Example 85]	> 10	–
O=S(=O)(c1cc(-c2nc(-c3cc(F)cc(F)c3)c[nH]2)ccc1Cl)N1CCC(O)CC1 [Example 86]	1 to 10	–
COc1ccccc1-c1c[nH]c(-c2ccc(Cl)c(S(=O)(=O)N3CCC(O)CC3)c2)n1 [Example 88]	1 to 10	–
Cc1ccc(-c2c[nH]c(-c3ccc(Cl)c(S(=O)(=O)N4CCC(O)CC4)c3)n2)cc1 [Example 96]	1 to 10	–
N#Cc1ccc(-c2c[nH]c(-c3ccc(Cl)c(S(=O)(=O)N4CCC(O)CC4)c3)n2)cc1 [Example 97]	< 1	–
COc1ccc(-c2c[nH]c(-c3ccc(Cl)c(S(=O)(=O)N4CCC(O)CC4)c3)n2)cc1 [Example 98]	1 to 10	–
O=S(=O)(c1cc(-c2nc(-c3ccc(C(F)(F)F)cc3)c[nH]2)ccc1Cl)N1CCC(O)CC1 [Example 99]	> 10	–
CC(C)(C)CC(=O)NCCCNS(=O)(=O)c1cc(-c2nc(-c3ccc(Br)c(F)c3)c[nH]2)ccc1Cl [Example 141]	< 1	–
N#Cc1ccc(-c2c[nH]c(-c3ccc(Cl)c(S(=O)(=O)N4CCC(O)CC4)c3)n2)cc1Cl [Example 149]	< 1	–

Compound	EC50 [1] [µM]	EC50 (HePAD38, 120 h, read-out: HepAD38 EC50 (μM)) [µM]
N#Cc1cc(-c2c[nH]c(-c3ccc(Cl)c(S(=O)(=O)N4CCC(O)CC4)c3)n2)ccc1C(F)(F)F [Example 150]	< 1	–
O=S(=O)(c1cc(-c2nc(-c3ccc(C(F)(F)F)c(Cl)c3)c[nH]2)ccc1Cl)N1CCC(O)CC1 [Example 151]	< 1	–
O=S(=O)(c1cc(-c2nc(-c3ccc(Cl)c(C(F)(F)F)c3)c[nH]2)ccc1Cl)N1CCC(O)CC1 [Example 152]	< 1	–
NS(=O)(=O)c1cc(-c2nc(-c3ccc(Br)c(F)c3)c[nH]2)ccc1Cl [Example 153]	1 to 10	–
N#Cc1ccc(-c2c[nH]c(-c3ccc(Cl)c(S(=O)(=O)N4CCC(O)CC4)c3)n2)cc1C(F)(F)F [Example 155]	< 1	–
N#Cc1cc(-c2c[nH]c(-c3ccc(Cl)c(S(=O)(=O)N4CCC(O)CC4)c3)n2)ccc1C1CC1 [Example 156]	1 to 10	–
O=S(=O)(c1cc(-c2nc(-c3ccc(C4CC4)c(Cl)c3)c[nH]2)ccc1Cl)N1CCC(O)CC1 [Example 157]	< 1	–
CC(C)(C)c1ccc(-c2c[nH]c(-c3ccc(Cl)c(S(=O)(=O)N4CCC(O)CC4)c3)n2)cc1 [Example 158]	< 1	–
O=S(=O)(c1cc(-c2nc(-c3ccccc3O)c[nH]2)ccc1Cl)N1CCC(O)CC1 [Example 159]	1 to 10	–
C[C@H](N)C(=O)OC1CCN(S(=O)(=O)c2cc(-c3nc(-c4ccc(F)c(Br)c4)c[nH]3)ccc2Cl)CC1 [Example 160]	1 to 10	–
O=S(=O)(c1cc(-c2nc(-c3ccc(C(F)(F)F)c(C4CC4)c3)c[nH]2)ccc1Cl)N1CCC(O)CC1 [Example 161]	< 1	–
CC(C)(C)c1cccc(-c2c[nH]c(-c3ccc(Cl)c(S(=O)(=O)N4CCC(O)CC4)c3)n2)c1 [Example 162]	1 to 10	–
O=S(=O)(c1cc(-c2nc(-c3ccc(Br)c(F)c3)c[nH]2)ccc1Cl)N1CC2COCC2C1 (stereo not shown) [Example 163]	< 1	–
COCC(C)NS(=O)(=O)c1cc(-c2nc(-c3ccc(Br)c(F)c3)c[nH]2)ccc1Cl (stereo not shown) [Example 164]	1 to 10	–
O=C(c1ccccc1)N1CCN(S(=O)(=O)c2cc(-c3nc(-c4ccc(Br)c(F)c4)c[nH]3)ccc2Cl)CC1 [Example 165]	1 to 10	–
O=C(Nc1ccccc1)C1CCN(S(=O)(=O)c2cc(-c3nc(-c4ccc(Br)c(F)c4)c[nH]3)ccc2Cl)CC1 [Example 166]	1 to 10	–
CC(C)(C)OC(=O)NC[C@@H]1[C@H]2CN(S(=O)(=O)c3cc(-c4ncc(-c5ccc(F)c(Br)c5)[nH]4)ccc3Cl)C[C@@H]12 [Example 167]	1 to 10	–
COC(=O)NC[C@@H]1[C@H]2CN(S(=O)(=O)c3cc(-c4ncc(-c5ccc(F)c(Br)c5)[nH]4)ccc3Cl)C[C@@H]12 [Example 168]	< 1	–
C[C@H](NC(=O)OC(C)(C)C)C(=O)OC1CCN(S(=O)(=O)c2cc(-c3nc(-c4ccc(F)c(Br)c4)c[nH]3)ccc2Cl)CC1 [Example 169]	< 1	–
N#Cc1ccc(-c2c[nH]c(-c3ccc(Cl)c(S(=O)(=O)N4CCC(O)CC4)c3)n2)cc1C1CC1 [Example 170]	< 1	–
O=S(=O)(c1cc(-c2nc(-c3ccc(C4CC4)c(C(F)(F)F)c3)c[nH]2)ccc1Cl)N1CCC(O)CC1 [Example 171]	< 1	–
COC(=O)NCCC(C)NS(=O)(=O)c1cc(-c2nc(-c3ccc(Br)c(F)c3)c[nH]2)ccc1Cl (stereo not shown) [Example 172]	< 1	–

Compound	EC50 [1] [µM]	EC50 (HePAD38, 120 h, read-out: HepAD38 EC50 (μM)) [µM]
COC(=O)NCCCCNS(=O)(=O)c1cc(-c2nc(-c3ccc(Br)c(F)c3)c[nH]2)ccc1Cl [Example 173]	< 1	–
CC(C)(C)OC(=O)NCCCCNS(=O)(=O)c1cc(-c2nc(-c3ccc(Br)c(F)c3)c[nH]2)ccc1Cl [Example 174]	< 1	–
COC(=O)NCCCCCNS(=O)(=O)c1cc(-c2nc(-c3ccc(Br)c(F)c3)c[nH]2)ccc1Cl [Example 175]	< 1	–
CC(C)(C)OC(=O)NCCCCCNS(=O)(=O)c1cc(-c2nc(-c3ccc(Br)c(F)c3)c[nH]2)ccc1Cl [Example 176]	< 1	–
COC(=O)OCCCNS(=O)(=O)c1cc(-c2nc(-c3ccc(Br)c(F)c3)c[nH]2)ccc1Cl [Example 177]	< 1	–
COC(=O)N(C)CCCNS(=O)(=O)c1cc(-c2nc(-c3ccc(Br)c(F)c3)c[nH]2)ccc1Cl [Example 178]	< 1	–
O=C(NCCCNS(=O)(=O)c1cc(-c2nc(-c3ccc(Br)c(F)c3)c[nH]2)ccc1Cl)Oc1ccccc1 [Example 179]	–	< 1
O=C(NCCCNS(=O)(=O)c1cc(-c2nc(-c3ccc(Br)c(F)c3)c[nH]2)ccc1Cl)OCc1ccccc1 [Example 180]	< 1	–
O=C(NCCCNS(=O)(=O)c1cc(-c2nc(-c3ccc(Br)c(F)c3)c[nH]2)ccc1Cl)c1ccccc1 [Example 181]	< 1	–
CC(C)(C)OC(=O)NCC1CN(S(=O)(=O)c2cc(-c3ncc(-c4ccc(F)c(Br)c4)[nH]3)ccc2Cl)C1 [Example 182]	< 1	–
CC(C)(C)OC(=O)NC1CN(S(=O)(=O)c2cc(-c3ncc(-c4ccc(Br)c(F)c4)[nH]3)ccc2Cl)C1 [Example 183]	< 1	–
O=S(=O)(c1cc(-c2nc(-c3ccc(Br)c(F)c3)c(Cl)[nH]2)ccc1Cl)N1CCC(O)CC1 [Example 184]	> 10	–
COC(=O)NCC(O)CNS(=O)(=O)c1cc(-c2nc(-c3ccc(Br)c(F)c3)c[nH]2)ccc1Cl (stereo not shown) [Example 185]	< 1	–
CNC(=O)OCCCNS(=O)(=O)c1cc(-c2nc(-c3ccc(Br)c(F)c3)c[nH]2)ccc1Cl [Example 186]	< 1	–
COC(=O)NC(C)CCNS(=O)(=O)c1cc(-c2nc(-c3ccc(Br)c(F)c3)c[nH]2)ccc1Cl (stereo not shown) [Example 188]	< 1	–
COC(=O)NCCCN(C)S(=O)(=O)c1cc(-c2nc(-c3ccc(Br)c(F)c3)c[nH]2)ccc1Cl [Example 190]	< 1	–
N#CCCCCNS(=O)(=O)c1cc(-c2nc(-c3ccc(Br)c(F)c3)c[nH]2)ccc1Cl [Example 191]	< 1	–
COC(=O)NC1(C(=O)NCCCNS(=O)(=O)c2cc(-c3nc(-c4ccc(Br)c(F)c4)c[nH]3)ccc2Cl)CC1 [Example 192]	< 1	–
O=C(CCCNS(=O)(=O)c1cc(-c2nc(-c3ccc(Br)c(F)c3)c[nH]2)ccc1Cl)Nc1ccccc1 [Example 194]	< 1	–
O=S(=O)(c1cc(-c2nc(-c3ccc(Br)c(F)c3)c[nH]2)ccc1Cl)N1CCN(c2cccnc2)CC1 [Example 195]	< 1	–
